Results published in PubChem BioAssay AID1259408 (Genetic Toxicology Data Bank (GENE-TOX), 2018).
Activity calls are given as the source filed them. How the calls were made is not given here. Numbered stars: 1 amine (or outer) side, 2 acyl side, 3 side chain; on linkers, the order of the positions; unused ones are H or OH. Bridge positions count the residues as written; N and C are the ends. Square brackets hold non-standard residues; d marks the D form. Peptide text beside a SMILES is read from it. I, II: the chains in the order shown. * marks the point of attachment. ξ: configuration not given here. Actinocin(9to1) = Cc1c2oc3c(C)ccc(C(=O)[*:1])c3nc-2c(C(=O)[*:2])c(N)c1=O; Heptanoyl(5-Me) = CCC(C)CCCC(=O)*; ξThr(3R) = C[C@@H](O)C(N)C(=O)O; NMeV = CN[C@H](C(=O)O)C(C)C; dDab = NCC[C@@H](N)C(=O)O; Dab = NCC[C@H](N)C(=O)O; Sar = CNCC(=O)O

System: GENE-TOX genotoxicity assays, various organisms and cells
Experiment: GENE-TOX mutagenicity studies
Conditions: for call: Assay Type: In vivo carcinogenicity studies
[1] = Species/Cell Type: Mammalian polychromatic erythrocytes, Assay Type: Micronucleus test, chromosome aberrations, Assay Code: MNTT, Evaluation Type: Evaluation B (Post-1980)
[2] = Species/Cell Type: Salmonella typhimurium (one or more of the five standard strains: TA98, TA100, TA1535, TA1537, and TA1538), Assay Type: Histidine reverse gene mutation, Ames assay, Assay Code: SAL+, Evaluation Type: Evaluation A (Pre-1980)
[3] = Species/Cell Type: Allium cepa, Assay Type: Chromosome aberrations, Assay Code: ALC+, Evaluation Type: Evaluation A (Pre-1980)
[4] = Species/Cell Type: Chinese hamster lung (V79) cells, Assay Type: Forward gene mutation at the HPRT or ouabain locus, Assay Code: V79-, Evaluation Type: Evaluation A (Pre-1980)
[5] = Species/Cell Type: Drosophila melanogaster, Assay Type: Sex-linked recessive lethal gene mutation, Assay Code: SRLT, Evaluation Type: Evaluation A (Pre-1980)
[6] = Species/Cell Type: Salmonella typhimurium (one or more of the five standard strains: TA98, TA100, TA1535, TA1537, and TA1538), Assay Type: Histidine reverse gene mutation, Ames assay, Assay Code: SAL+*, Activation: With metabolic activation, Evaluation Type: Evaluation A (Pre-1980)
[7] = Species/Cell Type: Salmonella typhimurium (one or more of the five standard strains: TA98, TA100, TA1535, TA1537, and TA1538), Assay Type: Histidine reverse gene mutation, Ames assay, Assay Code: SALT, Evaluation Type: Evaluation A (Pre-1980)
[8] = Species/Cell Type: Chinese hamster lung (V79) cells, Assay Type: Forward gene mutation at the HPRT or ouabain locus, Assay Code: V79+, Evaluation Type: Evaluation A (Pre-1980)
[9] = Species/Cell Type: Mammalian polychromatic erythrocytes, Assay Type: Micronucleus test, chromosome aberrations, Assay Code: MNT+, Evaluation Type: Evaluation B (Post-1980)

In the case of `CC(=O)Nc1ccc(OCC(O)CNC(C)C)cc1` (stereo not drawn), the mutagenic call [1] is reported as “no conclusion” and the mutagenic call (Species/Cell Type: Mouse, Sex: Male, Assay Type: Sperm morphology, Assay Code: SPI-, Evaluation Type: Evaluation A (Pre-1980)) is reported as “inactive; negative”.

For `COC(=O)c1ccc(N=Nc2ccc(N(C)OC(C)=O)cc2)cc1`, the mutagenic call [2] was “active; positive”.

For `Cc1c2oc3c(C)ccc(C(=O)N[C@@H]4C(=O)N[C@H](C(C)C)C(=O)N5CCC[C@H]5C(=O)N(C)CC(=O)N(C)[C@@H](C(C)C)C(=O)O[C@@H]4C)c3nc-2c(C(=O)N[C@@H]2C(=O)N[C@H](C(C)C)C(=O)N3CCC[C@H]3C(=O)N(C)CC(=O)N(C)[C@@H](C(C)C)C(=O)O[C@@H]2C)c(N)c1=O` (I: T[dV]P[Sar][NMeV] / II: T[dV]P[Sar][NMeV]; ester I:1-I:C, II:1-II:C; linker I:N-II:N via Actinocin(9to1)), the mutagenic call [3] was “active; positive”, the mutagenic call [4] was “inactive; negative” and the mutagenic call (Species/Cell Type: Chinese hamster ovary (CHO) cells, Assay Type: Forward gene mutation at the HPRT locus, Assay Code: CHO+, Evaluation Type: Evaluation B (Post-1980)) was “active; positive”. For the same compound, the mutagenic call (Species/Cell Type: Drosophila melanogaster, Assay Type: Aneuploidy, sex chromosome gain, chromosome aberrations, Assay Code: DAG+F, Evaluation Type: Evaluation A (Pre-1980)) was “active; positive”, the mutagenic call (Species/Cell Type: Drosophila melanogaster, Assay Type: Aneuploidy, whole sex chromosome loss, chromosome aberrations, Assay Code: DAC+F, Evaluation Type: Evaluation A (Pre-1980)) was “active; positive” and the mutagenic call [5] was “no conclusion”. The mutagenic call (Species/Cell Type: Escherichia coli polA (W3119 vs P3478), Assay Type: Rec-assay, DNA effects (bacterial DNA repair), Assay Code: RE1T, Evaluation Type: Evaluation A (Pre-1980)) was “no conclusion”, the mutagenic call (Species/Cell Type: Glycine max (soybean), Assay Type: Gene mutation, Assay Code: GLM+, Evaluation Type: Evaluation A (Pre-1980)) was “active; positive” and the mutagenic call (Species/Cell Type: Human cell culture, Assay Type: Chromosome aberrations in vitro, Assay Code: CYZ+D, Dose Response: With dose response, Evaluation Type: Evaluation A (Pre-1980)) was “active; positive”. For the same compound, the mutagenic call (Species/Cell Type: Human lymphocytes, Assay Type: Sister-chromatid exchange (SCE) in vivo, Assay Code: SCY+, Evaluation Type: Evaluation B (Post-1980)) was “active; positive”, the mutagenic call (Species/Cell Type: Mammalian polychromatic erythrocytes, Assay Type: Micronucleus test, chromosome aberrations, Assay Code: MNTT, Evaluation Type: Evaluation A (Pre-1980)) was “no conclusion” and the mutagenic call (Species/Cell Type: Mouse (C3H/10T1/2) cells, Assay Type: Cell transformation, Assay Code: CTH+, Evaluation Type: Evaluation A (Pre-1980)) was “active; positive”. For the same compound, the mutagenic call (Species/Cell Type: Mouse, Sex: Male, Assay Type: Sperm morphology, Assay Code: SPI+, Evaluation Type: Evaluation A (Pre-1980)) was “active; positive”, the mutagenic call (Species/Cell Type: Neurospora crassa, Assay Type: Forward gene mutation, Assay Code: NEF+, Evaluation Type: Evaluation A (Pre-1980)) was “active; positive” and the mutagenic call (Species/Cell Type: Nonhuman, Assay Type: Chromosome aberrations in vitro, Assay Code: CY&+, Evaluation Type: Evaluation A (Pre-1980)) was “active; positive”. For the same compound, the call (Species/Cell Type: Nonhuman, Assay Code: CCG+L, Evaluation Type: Evaluation A (Pre-1980)) was “active; positive”, the mutagenic call (Species/Cell Type: Nonhuman, Assay Type: Sister-chromatid exchange (SCE) in vitro, Assay Code: SC2+, Evaluation Type: Evaluation A (Pre-1980)) was “active; positive” and the mutagenic call (Species/Cell Type: Nonhuman, Assay Type: Sister-chromatid exchange (SCE) in vivo, Assay Code: SC3+, Evaluation Type: Evaluation B (Post-1980)) was “active; positive”. The mutagenic call (Species/Cell Type: Saccharomyces cerevisiae, Assay Type: Forward gene mutation, Assay Code: YEFT, Evaluation Type: Evaluation A (Pre-1980)) was “no conclusion”.

In the case of `CN(N=O)C(=O)C(=O)N(C)N=O`, the mutagenic call (Species/Cell Type: Arabidopsis species, Assay Type: Gene mutation, Assay Code: ARM+, Evaluation Type: Evaluation A (Pre-1980)) is reported as “active; positive” and the mutagenic call (Species/Cell Type: Saccharomyces cerevisiae, Assay Type: Reverse gene mutation, Assay Code: YER+, Evaluation Type: Evaluation A (Pre-1980)) is reported as “active; positive”.

With `Cc1[nH]cnc1CSCCN=C(NC#N)N(C)N=O` the mutagenic call (Species/Cell Type: Human lymphocytes, Assay Type: Sister-chromatid exchange (SCE) in vitro, Assay Code: SCL+D, Dose Response: With dose response, Evaluation Type: Evaluation B (Post-1980)) was “active; positive”, the mutagenic call (Species/Cell Type: Human, Assay Type: Sister-chromatid exchange (SCE) in vitro, Assay Code: SC1+D, Dose Response: With dose response, Evaluation Type: Evaluation B (Post-1980)) was “active; positive” and the mutagenic call (Species/Cell Type: Nonhuman, Assay Type: Sister-chromatid exchange (SCE) in vitro, Assay Code: SC2+D, Dose Response: With dose response, Evaluation Type: Evaluation B (Post-1980)) was “active; positive”.

With `O=Nc1ccc2ccccc2c1` the mutagenic call [2] was “active; positive”.

In the case of `O=C1c2ccccc2C(=O)c2c1cc(O[C@H]1O[C@H](CO[C@@H]3OC[C@@H](O)[C@H](O)[C@H]3O)[C@@H](O)[C@H](O)[C@H]1O)c(CO)c2O`, the mutagenic call [6] is reported as “active; positive”.

`Cc1ccc(F)c2ccc3c4ccccc4ccc3c12` was tested, and the mutagenic call [7] was “no conclusion”.

For `NC1=NC(=O)NC(=O)C1`, the mutagenic call (Species/Cell Type: Vicia faba, Assay Type: Chromosome aberrations, Assay Code: VIC+, Evaluation Type: Evaluation A (Pre-1980)) was “active; positive”.

In the case of `O=C(O)C1CCCCN1` (stereo not drawn), the mutagenic call (Species/Cell Type: Salmonella typhimurium, Assay Type: Forward and reverse gene mutation, host-mediated assay, Assay Code: HMA-, Evaluation Type: Evaluation A (Pre-1980)) is reported as “inactive; negative”.

For `O=S1OCC2C(CO1)C1(Cl)C(Cl)=C(Cl)C2(Cl)C1(Cl)Cl` (stereo not drawn), the mutagenic call [1] was “no conclusion”.

In the case of `O=C(N[C@@H](CO)[C@@H](O)c1ccc([N+](=O)[O-])cc1)C(Cl)Cl`, the mutagenic call [2] is reported as “active; positive”.

`O=C1c2ccccc2NC(c2ccc([N+](=O)[O-])o2)N1O` (stereo not drawn) was tested, and the mutagenic call (Species/Cell Type: Mammalian polychromatic erythrocytes, Assay Type: Micronucleus test, chromosome aberrations, Assay Code: MNT-, Evaluation Type: Evaluation B (Post-1980)) was “inactive; negative”.

With `COCCOC(=O)c1ccccc1C(=O)OCCOC` the mutagenic call (Species/Cell Type: Rodents, Sex: Male, Assay Type: Dominant lethal test, Assay Code: DLTT, Evaluation Type: Evaluation A (Pre-1980)) was “no conclusion”.

`COC(=O)Nc1nc2ccc(C(=O)c3ccccc3)cc2[nH]1` was tested, and the mutagenic call (Species/Cell Type: Salmonella typhimurium, Assay Type: Forward and reverse gene mutation, body fluid assay, Assay Code: BFU+, Evaluation Type: Evaluation A (Pre-1980)) was “active; positive” and the mutagenic call (Species/Cell Type: Salmonella typhimurium, Assay Type: Forward and reverse gene mutation, host-mediated assay, Assay Code: HMA+, Evaluation Type: Evaluation A (Pre-1980)) was “active; positive”.

With `[Cl][Tl]` the mutagenic call (Species/Cell Type: Syrian hamster embryo (SA7/SHE) cells, Assay Type: Cell transformation, viral enhanced, Assay Code: CT7+, Evaluation Type: Evaluation A (Pre-1980)) was “active; positive”.

`O=C1C=Cc2ccc3c4c(ccc1c24)-c1ccccc1C3=O` was tested, and the mutagenic call [4] was “inactive; negative”, the call (Species/Cell Type: Nonhuman, Assay Code: CCGT, Evaluation Type: Evaluation A (Pre-1980)) was “no conclusion” and the mutagenic call [7] was “no conclusion”.

`CCCN(C)N=O` was tested, and the mutagenic call [8] was “active; positive”.

`CCN(CCCO)N=O` was tested, and the mutagenic call [6] was “active; positive”.

With `CCC(C)CCCC(=O)N[C@@H](CCN)C(=O)N[C@H](C(=O)N[C@@H](CCN)C(=O)N[C@H]1CCNC(=O)C([C@@H](C)O)NC(=O)[C@@H](CCN)NC(=O)[C@H](CCN)NC(=O)[C@@H](CC(C)C)NC(=O)[C@@H](CC(C)C)NC(=O)[C@H](CCN)NC1=O)[C@@H](C)O` (stereo partly drawn) ({Heptanoyl(5-Me)}-[Dab]T[Dab][Dab][Dab][dL][dL][Dab][dDab][ξThr(3R)]; lactam 4-C) the mutagenic call (Species/Cell Type: Escherichia coli polA (W3119 vs P3478), Assay Type: Rec-assay, DNA effects (bacterial DNA repair), Assay Code: RE1-, Evaluation Type: Evaluation A (Pre-1980)) was “inactive; negative”, the mutagenic call (Species/Cell Type: Human lymphocytes, Assay Type: Sister-chromatid exchange (SCE) in vitro, Assay Code: SCL-, Evaluation Type: Evaluation B (Post-1980)) was “inactive; negative” and the mutagenic call (Species/Cell Type: Human, Assay Type: Sister-chromatid exchange (SCE) in vitro, Assay Code: SC1-, Evaluation Type: Evaluation B (Post-1980)) was “inactive; negative”.

For `NNc1ccccc1`, the mutagenic call [9] was “active; positive”.

With `CN1CCN(c2ccc([N+](=O)[O-])c3no[n+]([O-])c23)CC1` the mutagenic call [2] was “active; positive”.

For `O=C(CCl)NCO`, the mutagenic call [9] was “active; positive”.

For `COc1cccc(C2CO2)c1` (stereo not drawn), the mutagenic call (Species/Cell Type: Escherichia coli WP2 UVRA, Assay Type: Tryptophan reverse gene mutation, Assay Code: WPU-, Evaluation Type: Evaluation A (Pre-1980)) was “inactive; negative”.

For `Cc1cc(O)ccc1[N+](=O)[O-]`, the mutagenic call [3] was “active; positive”.

`OC[C@@H](O)[C@@H](O)[C@H](O)[C@@H](O)CO` was tested, and the mutagenic call (Species/Cell Type: Drosophila melanogaster, Assay Type: Aneuploidy, whole sex chromosome loss, chromosome aberrations, Assay Code: DAC-M, Evaluation Type: Evaluation A (Pre-1980)) was “inactive; negative”, the mutagenic call [5] was “no conclusion” and the mutagenic call (Species/Cell Type: Rodents, Sex: Male, Assay Type: Dominant lethal test, Assay Code: DLT-, Evaluation Type: Evaluation A (Pre-1980)) was “inactive; negative”.

In the case of `O[C@H]1[C@@H]2O[C@@H]2c2cc3ccc4cccc5ccc(c2[C@@H]1O)c3c45`, the mutagenic call (Species/Cell Type: Mouse prostate cells, Assay Type: Cell transformation, Assay Code: CTM-, Evaluation Type: Evaluation A (Pre-1980)) is reported as “inactive; negative”.

In the case of `O[C@@H]1c2cccc3ccc4cc5ccccc5c(c4c23)[C@H]1O`, the mutagenic call [8] is reported as “active; positive” and the mutagenic call [7] is reported as “no conclusion”.
